# Results taken from patent US11684614B2, “Formulations of hydroxypyridonate actinide/lanthanide decorporation agents” (priority 2017, dated 2023).
# Several values for one entry are separate records, joined by “and”; a condition that tells them apart may be missing. Identical values can stand only once.
# Assay: Repeated-treatment efficacy for removing an intravenous dose of 238Pu (excretion, tissue retention, clinical observations), female and male arms;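 as to % Recovered Dose - ART: ART is abdominal tissue remainder with GI tract reproductive organs spleen bladder fat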
# Assay type: in vivo, Swiss-Webster mice
# Experimental: The objective of this study was to characterize the efficacy of 3,4,3-L1(1,2-HOPO) at enhancing elimination from an internal plutonium burden in female and male Swiss-Webster mice administered a soluble citrate complex of ^238Pu and treated multiple times, starting at 24 hours after the exposure. Efficacy was evaluated by comparing the tissue contents, urinary and fecal excretions of ^238Pu in treated animals versus untreated animals.
# The medical countermeasure 3,4,3-L1(1,2-HOPO) was administered parenterally (ip) or orally (po) via consecutive injections or gavages (six daily or twelve twice daily) starting at 24 hours post contamination at the following four selected doses: 30 μmol/kg ip, 150 μmol/kg po, 300 μmol/kg po, and 600 μmol/kg po (equivalent to respective approximate human doses range of […], using the accepted conversion system of mouse doses into human equivalent doses—HED—based on body surface area). Oral doses also included the permeability enhancer selected during formulation development work.
# • Challenge isotope: ^238Pu • Challenge dose: 25 nCi (i.e., approximately 0.8 μCi/kg) • Route of contamination: Intravenous (iv) tail-vein • Route of treatment: Intraperitoneal Injection (ip) or Oral (po) • Frequency of treatment: Multiple (once- or twice-daily for 6 days) doses, starting 24 hr postcontamination • Treatment dose calculation: Dose calculations (mg/kg or μmol/kg) for the decorporation agent were based on the individual body weight measured after contamination. • Study Duration: 11 days, in-life
# c. […] Test article and control dose formulations were prepared within 1 day of dose administration, by weighing out the appropriate amount of test article, dispersing in vehicle. For ip solutions, the test article was used alone, while for oral suspensions, a mixture of test article and excipient (90:10, w:w) was used. The pH was adjusted to 7.0-7.4 for ip administration and 5.0-5.5 for oral administration with sterile NaOH. Dose formulations were prepared at room temperature and filter-sterilized. • Storage: 2-8° C.; refrigerated; protected from light. • Characterization: The concentration of each test article formulation was verified by high-performance liquid chromatography-mass spectrometry. • Test Article Handling: Test, reference, and control article formulations were handled with the use of eye protection, gloves, and a protective laboratory coat. • Correct Dose Assurance: The test article was weighed with calibrated balances. The administration of each dose formulation was properly documented, and the amount administered to each animal recorded.
# e. Experimental Procedures (In-Life Evaluations and Euthanasia) • Contamination: Single administration by intravenous (iv) tail-vein injection (0.2 mL injection volume) under isoflurane anesthesia. Three standard 0.2 mL injections were performed into polyethylene bottles and pre-loaded with aliquots of concentrated nitric acid on each injection day. Six female and six male mice were culled for necropsy 1 hr post-contamination and were used as standards. A11 standards were processed and counted together with the final samples to allow verification of the contamination dose. • Dose Administration: Single administration by intraperitoneal injection (ip) or oral gavage (po) under isoflurane anesthesia. • Mortality/Morbidity: Assessed at least once daily. • Clinical Observations: Recorded once daily (4 hr post-dose on day of treatment), or more often as clinical signs warranted. […]
# [1] = female animals, D-7 necropsy, individual animals, listed as 3,4,3-LI(1,2-HOPO)
# [2] = female animals, D-11 necropsy, individual animals, listed as 3,4,3-LI(1,2-HOPO)
# [3] = male animals, Day 7 necropsy, animal group B, listed as 3,4,3-LI(1,2-HOPO)
smiles,measurement,setting,value
"O=C(NCCCN(CCCCN(CCCNC(=O)c1cccc(=O)n1O)C(=O)c1cccc(=O)n1O)C(=O)c1cccc(=O)n1O)c1cccc(=O)n1O [3,4,3-L1(1,2-HOPO)]",% Recovered Dose-Female Animals-Urine per Day-Day 11 Necropsy,"animal group M, day 11, female mice, listed as 3,4,3-LI(1,2-HOPO)",0.44% and 0.82% and 0.63% and 0.58% and 0.53% and 1.12% and 0.91% and 0.93%
same,238Pu excretion path,female and male mice,predominantly through feces
same,adverse effect,"female and male mice, parenteral or oral, all dose levels",No adverse effect
same,% Recovered Dose - Kidney,"female animals, D-7 necropsy, individual animals (ID = group letter + number), dose/regimen of group not given, listed as 3,4,3-LI(1,2-HOPO)",0.27% (2×) and 0.15% and 0.24% (2×) and 0.17% and 0.31% and 0.14% and 0.09% and 0.28% (2×) and 0.43% and 0.12% and 0.21% and 0.22% (2×)
same,% Recovered Dose - ART,[1],1.01% and 1.36% and 1.12% (2×) and 1.30% and 1.21% and 1.29% and 1.37% and 1.20% and 0.98% (2×) and 1.39% and 1.24% (2×) and 1.16% and 1.59%
same,% Recovered Dose - Combined Body,[1],34.79% and 38.75% and 40.32% and 37.43% and 36.37% and 39.78% and 31.50% and 26.07% and 36.12% and 35.98% and 41.72% and 33.15% and 35.58% and 25.26% and 33.24% and 36.43%
same,% Recovered Dose - Combined Excreta,[1],65.21% and 61.25% and 59.68% and 62.57% and 63.63% and 60.22% and 68.50% and 73.93% and 63.88% and 64.02% and 58.28% and 66.85% and 64.42% and 74.74% and 66.76% and 63.57%
same,% Recovered Dose - Liver,[1],8.04% and 11.52% and 14.05% and 17.71% and 5.50% and 9.28% and 7.15% and 5.47% and 15.03% and 5.40% and 15.12% and 5.35% and 15.19% and 6.77% and 11.56% and 16.40%
same,% Recovered Dose - SKEL,[1],23.83% and 24.03% and 23.40% and 16.40% and 28.04% and 26.98% and 21.55% and 17.57% and 18.05% and 27.21% and 23.15% and 24.86% and 17.48% and 15.65% and 19.07% and 16.03%
same,% Recovered Dose - SOFT,[1],1.63% (2×) and 1.69% and 1.50% and 1.75% and 1.54% and 2.00% and 1.36% and 1.57% and 1.61% and 2.12% and 1.58% and 1.55% and 1.38% and 1.41% and 2.13%
same,% Recovered Dose - Total Feces,[1],37.37% and 25.66% and 41.03% and 28.59% and 40.61% and 26.74% and 36.25% and 39.09% and 25.39% and 34.86% and 39.63% and 37.46% and 28.91% and 37.33% and 32.34% and 24.62%
same,% Recovered Dose - Total Urine,[1],27.84% and 35.60% and 18.65% (2×) and 33.98% and 23.02% and 33.48% and 32.25% and 34.83% and 38.49% and 29.16% and 29.39% and 35.51% and 37.41% and 34.43% and 38.95%
same,% Recovered Dose - Combined Body,[2],17.98% and 75.50% and 20.85% and 19.27% and 21.23% and 20.95% and 24.13% and 19.99% and 25.13% and 24.87% and 27.98% and 26.74% and 30.36% and 31.29% and 29.30% and 29.18% and 27.61% and 23.71% and 21.16% and 25.90% and 28.33% and 29.52% and 30.59% and 27.44%
same,% Recovered Dose - Combined Excreta,[2],82.02% and 24.50% and 79.15% and 80.73% and 78.77% and 79.05% and 75.87% and 80.01% and 74.87% and 75.13% and 72.02% and 73.26% and 69.64% and 68.71% and 70.70% and 70.82% and 72.39% and 76.29% and 78.84% and 74.10% and 71.67% and 70.48% and 69.41% and 72.56%
same,% Recovered Dose - GI Tract,[2],0.65% and 1.84% and 0.77% and 0.48% and 0.55% and 0.52% and 0.62% and 0.54% and 0.97% and 0.80% (2×) and 1.10% and 0.99% and 0.95% and 1.50% and 0.96% and 0.87% and 0.70% and 0.91% and 0.68% and 0.50% and 1.19% and 0.81% and 1.03%
same,% Recovered Dose - Kidney,[2],0.09% and 1.35% and 0.13% (2×) and 0.08% (2×) and 0.18% and 0.14% (4×) and 0.05% and 0.11% (2×) and 0.25% and 0.16% (2×) and 0.26% and 0.12% and 0.20% (2×) and 0.15% and 0.10% (2×)
same,% Recovered Dose - Liver,[2],4.74% and 36.77% and 4.16% and 1.79% and 1.96% and 2.48% and 3.25% and 1.16% and 8.54% and 3.78% and 4.98% and 7.97% and 5.01% and 6.46% and 4.53% and 6.86% and 4.50% and 3.03% and 5.22% and 3.96% and 5.73% and 8.43% and 7.92% and 6.01%
same,% Recovered Dose - Soft Tissue,[2],1.29% (2×) and 3.31% and 0.99% and 1.94% (2×) and 1.49% and 1.62% and 1.17% and 1.66% and 1.55% and 2.66% and 2.10% and 2.26% and 1.73% and 2.18% and 2.32% and 2.21% and 2.05% and 2.16% and 2.59% and 1.56% and 1.48% and 2.11%
same,% Recovered Dose - Total Bone,[2],11.21% and 32.22% and 14.80% and 15.63% and 16.61% and 16.38% and 18.50% and 17.05% and 13.83% and 18.64% and 18.99% and 15.53% and 21.88% and 21.46% and 21.52% and 18.92% and 19.89% and 17.79% and 12.72% and 18.57% and 20.43% and 17.82% and 20.28% and 18.12%
same,% Recovered Dose - Total Feces,[2],38.27% and 13.76% and 41.57% and 45.81% and 39.56% and 45.73% and 37.01% and 44.68% and 36.23% and 51.20% and 30.57% and 33.16% and 39.74% and 37.31% and 37.09% and 35.70% and 28.28% and 37.36% and 36.24% and 36.31% and 36.22% and 32.51% and 34.94% and 35.74%
same,% Recovered Dose - Total Urine,[2],43.75% and 10.74% and 37.58% and 34.92% and 39.21% and 33.32% and 38.85% and 35.33% and 38.64% and 23.93% and 41.45% and 40.10% and 29.89% and 31.40% and 33.61% and 35.12% and 44.11% and 38.93% and 42.60% and 37.79% and 35.45% and 37.97% and 34.47% and 36.82%
same,% Recovered Dose - Feces per Day - Day 2,"female animals, Day 7 necropsy, Day 2, listed as 3,4,3-LI(1,2-HOPO)",13.36% and 8.81% and 9.40%
same,% Recovered Dose - Feces per Day - Day 3,"female animals, Day 7 necropsy, Day 3, listed as 3,4,3-LI(1,2-HOPO)",5.58% and 1.92% and 3.39%
same,% Recovered Dose - Feces per Day - Day 4,"female animals, Day 7 necropsy, Day 4, listed as 3,4,3-LI(1,2-HOPO)",3.61% and 2.93% and 2.98%
same,% Recovered Dose - Feces per Day - Day 5,"female animals, Day 7 necropsy, Day 5, listed as 3,4,3-LI(1,2-HOPO)",2.85% and 2.91% and 2.16%
same,% Recovered Dose - Feces per Day - Day 6,"female animals, Day 7 necropsy, Day 6, listed as 3,4,3-LI(1,2-HOPO)",1.63% and 2.50% and 1.90%
same,% Recovered Dose - Feces per Day - Day 7,"female animals, Day 7 necropsy, Day 7, listed as 3,4,3-LI(1,2-HOPO)",1.39% and 1.95% and 1.75%
same,increase in total 238Pu excretion compared to the control groups,"female, 6 daily oral treatments, 600 μmol/kg, 11 days post-contamination",up to 143%
same,tissue content of 238Pu compared to saline control group,"female, all analyzed tissues, all dosing regimens",large reductions
same,full body content of 238Pu compared to saline control groups,"female, all treated groups",significant reductions
same,decrease in body burden compared to the control groups,"female, once-daily oral 600 μmol/kg, 11 days post-contamination",up to 45%
same,decorporation efficacy relative to parenteral DTPA,"female, oral once-daily 300 μmol/kg",equivalent to that of parenteral treatment with DTPA
same,238Pu elimination enhancement,"female, oral twice-daily 150 and 300 μmol/kg or once-daily 300 and 600 μmol/kg, 7 days post-contamination",significant
same,"% Recovered Dose Urine per Day, Day 1",[3],20.65% and 15.62% and 19.53% and 17.05%
same,"% Recovered Dose Urine per Day, Day 2",[3],2.02% and 2.81% and 2.18% and 1.96%
